Results taken from publication PMC9604439, “Mutation Hotspot for Changing the Substrate Specificity of β-N-Acetylhexosaminidase: A Library of GlcNAcases” (International Journal of Molecular Sciences, 2022).

Tests used:
[1] = molecular target: T1, TfHex (β-N-acetylhexosaminidase from Talaromyces flavus) (Talaromyces flavus, UniProt G5DAA0, E332K); experiment: discontinuous p-nitrophenolate release assay, non-linear regression; type: biochemical; conditions: McIlvaine buffer pH 5.0, 25 °C; not measured to full saturation, estimate only
T1 construct: secreted via alpha-factor, pPICZαA, Pichia pastoris KM71H, cation-exchange purified; tetramer of two catalytic subunits and two non-covalently linked propeptides
Excerpt: discontinuous p-nitrophenolate release assay, non-linear regression on TfHex (β-N-acetylhexosaminidase from Talaromyces flavus) | for Glu332Lys TfHex, only estimates of kinetic parameters are presented

[2] = molecular target: T2, TfHex (β-N-acetylhexosaminidase from Talaromyces flavus) (Talaromyces flavus, UniProt G5DAA0, E332H); experiment: as above; type: biochemical; conditions: McIlvaine buffer pH 5.0, 25 °C; not measured to full saturation
T2 construct: secreted via alpha-factor, pPICZαA, Pichia pastoris KM71H, cation-exchange purified; tetramer of two catalytic subunits and two non-covalently linked propeptides
T2 sequence (G5DAA0 entry or part of it E332H): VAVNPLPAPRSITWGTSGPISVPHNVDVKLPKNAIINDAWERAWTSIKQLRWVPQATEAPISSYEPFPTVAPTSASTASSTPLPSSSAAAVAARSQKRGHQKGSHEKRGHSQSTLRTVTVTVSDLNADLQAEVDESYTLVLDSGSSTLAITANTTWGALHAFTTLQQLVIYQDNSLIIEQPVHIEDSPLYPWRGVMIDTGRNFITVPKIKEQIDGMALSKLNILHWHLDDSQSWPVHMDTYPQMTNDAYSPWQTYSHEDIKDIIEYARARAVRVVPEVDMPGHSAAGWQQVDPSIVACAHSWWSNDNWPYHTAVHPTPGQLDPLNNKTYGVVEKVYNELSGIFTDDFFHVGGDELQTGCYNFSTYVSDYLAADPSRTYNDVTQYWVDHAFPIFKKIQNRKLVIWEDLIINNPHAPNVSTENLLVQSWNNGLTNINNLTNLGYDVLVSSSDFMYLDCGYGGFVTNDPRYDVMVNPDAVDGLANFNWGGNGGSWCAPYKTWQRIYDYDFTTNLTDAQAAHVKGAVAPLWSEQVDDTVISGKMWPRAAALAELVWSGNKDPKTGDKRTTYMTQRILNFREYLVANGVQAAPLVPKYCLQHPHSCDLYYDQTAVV

T1 sequence (G5DAA0 entry or part of it E332K): as the sequence (G5DAA0 entry or part of it E332H) above, with H315K counted along it

CC(=O)N[C@H]1[C@H](Oc2ccc([N+](=O)[O-])cc2)O[C@H](CO)[C@@H](O)[C@@H]1O [pNP-GlcNAc, p-Nitrophenyl 2-acetamido-2-deoxy-β-D-glucopyranoside]
Km [1]: > 7 mM | Km [2]: > 7 mM
